# Patent US20250049674A1, “COSMETIC OR DERMATOLOGICAL COMPOSITION COMPRISING AT LEAST A MEROCYANINE AND A HYDROTROPE” (L'OREAL, priority 2021, published 2025)
# Assay: Water solubility of merocyanine (C)
# Type: physicochemical
# Conditions: at 20° C.
# Source text: It is therefore necessary to be able to formulate UV-screening agents of merocyanine type in an aqueous medium. In particular, for cosmetic quality and performance benefits, it is advantageous that this aqueous medium be a single-phase medium.
structure (smiles),measurement,value
"CCOCCOC(=O)/C(C#N)=C1\C=C(NCCCOC)CCC1 [Compound (C), 2-ethoxyethyl (2Z)-cyano{3-[(3-methoxypropyl)amino]cyclohex-2-en-1-ylidene}ethanoate]",solubility,~500 µg/mL
